Laboratory results from ChEMBL document CHEMBL5726174, “Therapeutic compounds and uses thereof” (2019).

Target: T1, Bromodomain-containing protein 9 (Homo sapiens, UniProt Q9H8M2)
T1 sequence (Q9H8M2 whole entry): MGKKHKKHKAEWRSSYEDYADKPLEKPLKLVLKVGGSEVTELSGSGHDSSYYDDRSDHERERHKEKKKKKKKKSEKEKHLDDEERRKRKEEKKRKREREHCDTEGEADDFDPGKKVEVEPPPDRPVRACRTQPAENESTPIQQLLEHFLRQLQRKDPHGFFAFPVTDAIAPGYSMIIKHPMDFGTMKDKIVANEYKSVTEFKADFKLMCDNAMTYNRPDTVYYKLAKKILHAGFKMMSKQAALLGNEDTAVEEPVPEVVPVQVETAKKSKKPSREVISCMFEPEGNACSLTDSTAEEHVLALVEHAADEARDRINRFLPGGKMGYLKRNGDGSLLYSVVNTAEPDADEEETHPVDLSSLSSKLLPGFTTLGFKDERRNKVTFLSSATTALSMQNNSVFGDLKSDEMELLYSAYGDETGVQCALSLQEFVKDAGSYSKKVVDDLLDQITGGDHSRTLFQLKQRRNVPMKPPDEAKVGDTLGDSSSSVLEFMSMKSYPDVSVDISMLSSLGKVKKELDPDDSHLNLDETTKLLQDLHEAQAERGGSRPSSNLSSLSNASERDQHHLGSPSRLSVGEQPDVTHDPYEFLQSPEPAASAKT
Assay: IC50 measurements for inhibitors using BRD9 AlphaLisa Binding Assay: His/Flag epitope tagged BRD9134-239 was cloned, expressed, and purified to homogeneity. […] After 20 minutes incubation at room temperature AlphaLisa Streptavidin Acceptor Beads (Perkin-AL125C) and AlphaLisa Nickel donor beads (Perkin AS 10 ID) were added to a final concentration of 15 ug/mL each.

IC50 [µM] | SMILES
0.009 | C=CCn1cc(-c2cc(OC)c(C(=O)N3CCOCC3)cc2OC)c2cc(C)[nH]c2c1=O
0.28 | CC(C)(O)c1ccc(-c2cn(CCC3CC3)c(=O)c3[nH]ccc23)cc1
0.028 | C/C=C/Cn1cc(-c2cc(C(=O)NCC)ccc2OC)c2cc[nH]c2c1=O
0.046 | CCCCn1cc(-c2cc(C#N)ccc2OC)c2cc[nH]c2c1=O
